Measurements published in US4927832A, “Novel tetrahydropyridines having analgesic activity” (Roussel Uclaf, priority 1987, dated 1990).
Counter-ions that a name gives are not always drawn.

Key:
K opiated receptor = biological target: T1, K opiated receptor (Cavia porcellus, UniProt P41144); assay: Liaison to the K opiated receptor in vitro (displacement of 3H ethylketocyclazocine); format: binding, guinea pigs; conditions: 50% inhibiting concentration (IC50), membranes from guinea pig brains, 3H ethylketocyclazocine 1 nM, 25° C. for 40 minutes
T1 construct: prepared from the brains of guinea pigs were used; from tissue; host or cells: guinea pig brain membranes
Procedure: (1) Liaison to the K opiated receptor in vitro:
Membrane residues preserved at -30° C. (possibly up to about 30 days) and prepared from the brains of guinea pigs were used.' The residues were suspended in Tris pH 7.7 buffer and fractions of 2 ml were distributed in hemolysis tubes, 9^3 H ethylketocyclazocine 1 nM and the product under study were added. The product was first tested at 5×10^-6 M (in triplicate). When the product tested displaced the radioactivity bound specifically to the receptor by more than 50%, it was again tested according to a range of 7 doses to determine the dose which inhibits the radioactivity bound specifically to the receptor by 50%. In this way, the 50% inhibiting concentration was determined.
The non-specific liaison was determined by adding the product known as U-50488 H (Lahti et al. 1982, Life Sci. 31, 2257) at 10^-5 M in triplicate. After incubating at 25° C. for 40 minutes, returning to the water-bath at 0° C. for 5 minutes, filtering under vacuum, and rinsing with Tris pH 7.7 buffer, the radioactivity was counted in the presence of scintillating Trition. […]

[1] = tested on: Male rats of Sprague Dawley strain; assay: Measurement of diuretic activity; format: in vivo; conditions: 5 mg/kg orally, urinary volume over period t0h-t5h
Procedure: (3) Measurement of diuretic activity Male rats of Sprague Dawley strain weighing 180-200 g were deprived of food for 17 hours before the test, while receiving water ad libitum. Groups of 8 animals were set up for each dose tested and the rats received the product under test or its vehicle orally. The urine volume was measured every hour for the 5 hours following the administration of the product. After this period, the urines were collected and the activity of the product was expressed as a percentage of variation calculated on the urinary volume corresponding to the period tOH --[…].

male mice = assay: Analgesic activity (acetic acid stretching and twisting test); format: in vivo; conditions: administered orally 30 minutes before intraperitoneal acetic acid
Procedure: This test was based on the observation of Koster et al (Fed. Proc. 1959, 1B, 412) that the intraperitioneal injection of acetic acid causes repeated movements of stretching and twisting in rodents which can be considered as manifestations of a diffuse abdominal pain because they ae attenuated by analgesics. The acetic acid was injected at a […] male mice of average weight of […]. The product under study was administered orally 30 minutes before the injection of the acetic acid to groups of 10 animals, each trial including a control group which receives the vehicle. Five minutes after the injection of the irritant, the stretchings and twistings were counted for each animal for a period of 15 minutes. The analgesic effect of each dose of product studied was expressed as a percentage of protection in relation to the average number of movements observed in the controls receiving acetic acid alone. The DA50 or dose necessary to reduce the number of stretchings by 50% was calculated according to the method of least squares. The DA50 values obtained with the products of Example 1 and 3 were respectively 2.5 and 5 mg/kg.

rat = assay: Anti-arrhythmic activity in the rat (aconitine perfusion); format: in vivo; conditions: 5 minutes before aconitine perfusion, compared with controls
Procedure: (2) Anti-arrhythmic activity in the rat
Male rats weighing 300-350 g, anesthesized intra-peritoneally with 1.20 g/kg of urethane, were tracheotomised and submitted to artifical respiration (40-50 insufflations of 3 ml/minute). Needles were implanted sub-cutaneously to record the electrocardiogram of the rats on the DII derivation signal and the products under test were administered intravenously. Five minutes after administering the product, the jugular vein of the rats was perfused with 10 μg/mn from 0.2 ml of an aconitine solution and the time of appearance of disturbances of the cardiac rhythm was noted. The results were expressed as percentage of extension of the time of appearance of the cardiac rhythm disturbances as compared with controls and as a function of the dose of the product tested.

T1 sequence (P41144 whole entry): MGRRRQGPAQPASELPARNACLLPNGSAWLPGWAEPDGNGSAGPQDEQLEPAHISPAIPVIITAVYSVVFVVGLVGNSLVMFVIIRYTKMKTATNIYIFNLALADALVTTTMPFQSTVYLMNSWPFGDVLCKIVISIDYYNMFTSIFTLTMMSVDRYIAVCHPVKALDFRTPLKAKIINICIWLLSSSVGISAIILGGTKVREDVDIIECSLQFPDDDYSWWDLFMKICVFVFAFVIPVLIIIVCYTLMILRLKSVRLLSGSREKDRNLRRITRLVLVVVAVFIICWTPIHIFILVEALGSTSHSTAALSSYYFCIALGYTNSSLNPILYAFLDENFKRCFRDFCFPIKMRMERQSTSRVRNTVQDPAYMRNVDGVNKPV

Compound	IC50 (K opiated receptor) [nM]	Percentage of variation of the urine volume [1]	DA50 or dose necessary to reduce the number of stretchings by 50% (male mice; 30 min) [mg/kg]	Percentage of extension of the time of appearance of the cardiac rhythm disturbances (rat; dose 1 mg/kg intravenously)	Percentage of extension of the time of appearance of the cardiac rhythm disturbances (rat; dose 2.5 mg/kg intravenously)	ED50 (male mice; Mus musculus, po, 0.5 h, read-out: DA50 or dose necessary to reduce the number of stretchings by 50%) [mg/kg]
O=C(Cc1ccc(Cl)c(Cl)c1)N1CCCC2CCC(N3CCCC3)C21 (stereo not drawn) [Example 3, [4aRS (4aα, 7aβ)] (35) 1-[(3.4-dichlorophenyl)acetyl]octahydro-7-(1-pyrrolidinyl)-1H-1-pyrindine hydrochloride (isomer trans I).]	9	+57%	5			
O=C(Cc1ccc(Cl)c(Cl)c1)N1CCC[C@@H]2CCCC[C@H](N3CCCC3)[C@@H]21 (relative stereo) [Example 4, [4a-α, 9-β, 9a-α] (±) decahydro-1-([3,4-dichlorophenyl)-acetyl]-9-(1-pyrrolidinyl)-1H-cyclohepta[b]pyridine hydrochloride]				+37%	+65%	
O=C(Cc1ccc(Cl)c(Cl)c1)N1CCCC2CCC(N3CCCC3)C21 (mixture of isomers) [Example 1, [4aRS (4a-α, 7a-α)](±)1-[(3,4-dichlorophenyl)-acetyl]-octahydro-7-(1-pyrrolidinyl)-1H-1-pyrindine hydrochloride (isomer cis I)]	4	+85%		+26%	+35%	2.5
